Experimental data: US11827897B2, “Agricultural compositions and related methods” (Flagship Pioneering Innovations VI, LLC, priority 2018, dated 2023)
Where a SMILES comes first, the peptide text is derived from it.

Tests used:
BMS cell growth = assay: Cytotoxicity assay for concentrations not affecting apparent BMS cell growth; type: cell-based, Zea mays
Description: (§1) To determine the effect of the flagellin peptide flg22 ([…] (SEQ ID NO: 14) (AnaSpec AS-62633) on PMP production by Zea mays BMS cells, 200 mL of BMS cell culture were prepared as described above. A cytotoxicity assay was carried out to determine the range of concentrations of flg22 that would not affect apparent BMS cell growth, and the flg22 concentration of 1 μM was determined to be compatible with cell growth. 30 mL of BMS cell suspension was distributed in individual 125 mL conical culture vented-flasks. In parallel, 89.55 mL of fresh media was mixed with 450 μL of 400 μM flg22 peptide suspension prepared in ultrapure sterile water to a final concentration of 2 μM. For the control conditions, 450 μL of ultrapure sterile water was added instead of flg22. Then, 30 mL of the media/flg22 or media/water mix was added to each flask containing 30 mL cell suspension (1:1 v/v) to a flg22 final concentration of 1 μM. Biological triplicates were performed for both flg22 treatment and control conditions. Control cells and cells treated with flg22 were grown at 24° C. with agitation (110 rpm) for 96 hours.
To determine the effect of salicylic acid (SA) on PMP production by Zea mays BMS cells, 200 mL of BMS cell culture were prepared as described above. […] 30 mL of BMS cell suspension was distributed into individual 125 mL conical culture vented-flasks. […]

Zea mays BMS cells = assay: PMP production by Zea mays BMS cell culture after elicitation (NanoFCM); type: cell-based; settings: 100 μM salicylic acid, 96 hours
Description: Zea mays, Black Mexican Sweet (BMS) cells were purchased from the ABRC. BMS cells were grown in Murashige and Skoog basal medium pH 5.8, containing 4.3 g/L Murashige and Skoog Basal Salt Mixture (Sigma M5524), 2% sucrose (S0389, Millipore Sigma), 2 mg/L 2,4-dichlorophenoxyacetic acid (D7299, Millipore Sigma), 250 ug/L thiamine HCL (V-014, Millipore Sigma) and a 1× MS vitamin mix solution in ddH2O. The 1× vitamin mix solution contained niacin (N0761-100G, Millipore Sigma), pyroxidine hydrochloride (P6280-25G, Millipore Sigma), D-pantothenic acid hemicalcium salt (P5155-100G, Millipore Sigma), L-Asparagine (A4159-25G, Millipore Sigma), and myo-inositol (17508-100G, Millipore Sigma) at respective final concentrations of 1.3 mg/L, 250 μg/L, 250 μg/L, 130 mg/L, and 200 mg/L. Cells were grown in 1 L vented conical sterile flasks in dark conditions at 24° C. with agitation (110 rpm). For experiments, BMS cells were grown until cells were at a packed cell volume (PCV) of 20%. The PCV estimates cell density and is defined as the volume of cells divided by the total volume of the cell culture aliquot. The Packed Cell Volume is expressed as a percentage. The PCV was determined as follows: 5 mL of BMS cell suspension was centrifuged for 5 min at 3900 rpm, and the volume of the cell pellet was determined.
as §1, with “Then, 30 mL of the media/flg22 or media/water mix was added to each flask containing 30 mL cell suspension (1:1 v/v) to a flg22 final concentration of 1 μM. Biological triplicates were performed for both flg22 treatment and control conditions. Control cells and cells treated with flg22 were grown at 24° C. with agitation (110 rpm) for 96 hours.” left out

[1] = test system: tomato plants grown in hydroponic culture; assay: PMP production by tomato plants grown in hydroponic culture after salicylic acid treatment; type: in vivo, Solanum lycopersicum
Description: Seeds of tomato (Solanum lycopersicum) cultivar Moneymaker were sterilized as follows: 70% ethanol for 3 min, 50% household bleach with 0.1% Triton X-100 (Sigma) for 20 min, washed three times with sterile deionized water. Sterilized seeds were germinated on moistened filter paper (Whatman®) in sterile Petri dishes sealed with medical tape (3M) and placed in a plant growth incubator (16 hr light, 23 C/21 C day/night) for seven days. Clear, square, pre-sterilized plastic containers (PhytoTech Labs) were assembled into hydroponic containers similar to what was previously described (Alatorre-Cobos et al., BMC Plant Biol., 14: Article No.: 69, 2014; FIG. 8A). Two containers were cut with sterile scalpels to assemble a support for a sterile polytetrafluoroethylene (PTFE) plastic mesh (McMaster-Carr). Plastic mesh was fixed to plastic supports with sterile staples. Small openings were cut into the plastic mesh and germinated seedlings threaded through the openings using sterile forceps. Each mesh supported five seedlings. 200 mL 1×MS growth medium (Murashige & Skoog basal salt mixture (Sigma) 4.3 g/L, sucrose 10 g/L, MES (Sigma) 0.5 g/L, pH 5.8 adjusted with KOH) was added to a whole plastic container serving as the base. Plastic support with mesh and threaded seedlings was placed into the base container. A second whole plastic container with a cut 2 cm^2 opening and sealed with medical tape was used as the lid. The two halves were sealed with medical tape and the containers transferred to a plant incubator (16 hr light, 23° C./21° C. day/night) for three weeks. […]
Culture medium (180 mL per container) was collected and centrifuged at 4,000×g for 30 min to pellet debris. […] Pellets were resuspended in 200 μL 1×PBS, pH 7.4 and analyzed using nano flow-cytometry (NanoFCM). PMP concentration (treatment: 4.06×10^11±1.41×10^11 PMP/mL (SEM); control: 5.44×10^10±2.49×10^10 PMP/mL (SEM)) and PMP size (treatment: 97±25 nm (SD); control: 82±27 nm (SD)) were determined by NanoFCM using concentration and size standards provided by the manufacturer (FIG. 8B).

Compound | concentration compatible with cell growth (BMS cell growth; Zea mays BMS cells) [µM] | effect on production of PMPs by BMS cells in culture (Zea mays BMS cells) | PMP concentration (Zea mays BMS cells; BMS cells, average of triplicates, DMSO control 1.47×10^11 PMP/mL) | mean PMP size (Zea mays BMS cells; BMS cells, control 87±15 nm) [nm] | concentration compatible with cell growth (BMS cell growth; Zea mays) [µM] | PMP size ([1]; 1 mM salicylic acid for three days, ± SD, control 82±27 nm) [nm] | effect on secretion of PMPs from the plant roots ([1]; hydroponically grown tomato, 1 mM salicylic acid) | PMP concentration ([1]; three-week-old tomato plants, 1 mM salicylic acid for three days, ± SEM, n=2, DMSO control 5.44×10^10±2.49×10^10)
CC[C@H](C)[C@H](NC(=O)[C@H](CCC(N)=O)NC(=O)[C@H](CC(C)C)NC(=O)CNC(=O)[C@H](C)NC(=O)[C@H](C)NC(=O)[C@H](CC(=O)O)NC(=O)[C@H](CC(=O)O)NC(=O)[C@H](CCCCN)NC(=O)[C@H](C)NC(=O)[C@H](CO)NC(=O)[C@H](CC(N)=O)NC(=O)[C@@H](NC(=O)[C@H](CCCNC(=N)N)NC(=O)[C@H](CO)NC(=O)CNC(=O)[C@@H](NC(=O)[C@H](CO)NC(=O)[C@H](CC(C)C)NC(=O)[C@H](CCCNC(=N)N)NC(=O)[C@@H](N)CCC(N)=O)[C@@H](C)O)[C@@H](C)CC)C(=O)N[C@@H](C)C(=O)O [flg22] (H-QRLSTGSRINSAKDDAAGLQIA-OH) | 1 |  |  |  |  |  |  | 
O=C(O)c1ccccc1O [salicylic acid] |  | stimulates the production of PMPs | 1.84×10^11 PMP/mL | 86.5±15 | 100 | 97±25 | enhance secretion of PMPs from the plant roots | 4.06×10^11±1.41×10^11 PMP/mL
